The values below are quoted from earlier work in patent US20220023306A1, “USE OF A PPAR-DELTA AGONIST IN THE TREATMENT OF FATTY ACID OXIDATION DISORDERS (FAOD)” (Reneo Pharmaceuticals, Inc., priority 2019, published 2022).

The test system of one data set is VLCAD. The following applies: VLCAD deficient cell line FB833; cited from earlier work.
Another data set deals with control myoblasts. The following applies: cited from earlier work.
The test system of a further data set is CPT2-deficient myoblasts. The note with it: cited from earlier work; for FAO: CPT2-deficient myoblasts.
In data set [1] the test system is fibroblasts derived from patients with VLCAD, LCHAD and TFP deficiencies. The note with it: cited from earlier work.
In a further data set the test system is CPT2. The following applies: cultured patient fibroblasts carrying mild mutations of the CPT2 gene; cited from earlier work.

Molecules are shown by their SMILES. Read-outs that look alike come from different tables or passages of the source.

Consider `Cc1cc(SCc2sc(-c3ccc(C(F)(F)F)c(F)c3)nc2C)ccc1OCC(=O)O` [GW0742, [4-[[[2-[3-Fluoro-4-(trifluoromethyl)phenyl]-4-methyl-5-thiazolyl]methyl]thio]-2-methylphenoxy]acetic acid], for which, in the data set on VLCAD, the VLCAD enzyme activity entry is on record as “increase”.
For `Cc1cc(SCc2sc(-c3ccc(C(F)(F)F)cc3)nc2C)ccc1OCC(=O)O` [GW501516, 2-[2-Methyl-4-[[[4-methyl-2-[4-(trifluoromethyl)phenyl]-5-thiazolyl]methyl]thio]phenoxy]acetic acid], in the data set on VLCAD, the VLCAD enzyme activity result was “increase”.
On to `Cc1cc(SCc2sc(-c3ccc(C(F)(F)F)c(F)c3)nc2C)ccc1OCC(=O)O` [GW 072], for which the FAO result in the data set with control myoblasts is “stimulated”. Besides, in the data set with CPT2-deficient myoblasts (CPT2-deficient cells), the long-chain acylcarnitine production result is on record as “normalized” and the “residual CPT2 activity” value was “increased”. The FAO result in the data set with CPT2-deficient myoblasts is recorded as “restore”.
Take `CC(C)(Sc1ccc(CCN(CCCCC2CCCCC2)C(=O)NC2CCCCC2)cc1)C(=O)O` [GW 7647]: in the data set with CPT2-deficient myoblasts, the FAO result is “no effect”.
Consider `CCCc1c(OCCCOc2ccc(OCC(=O)O)cc2)ccc(C(C)=O)c1O` [L-165,0411, [4-[3-(4-Acetyl-3-hydroxy-2-propylphenoxy)propoxy]phenoxy]acetic acid], for which the VLCAD enzyme activity entry in the data set on VLCAD is “increase”.
Regarding `Cc1cnc(-c2ccc(C(F)(F)F)cc2)n1Cc1ccccc1OCCC[C@@H](C)CC(=O)O` [MA-0211], the fatty acid oxidation result in data set [1] (fibroblasts from patients with LCHAD deficiency), in data set [1] (fibroblasts from patients with TFP deficiency) and in data set [1] (fibroblasts from patients with VLCAD deficiency) was “improvements” throughout.
For the compound `CC(C)(Oc1ccc(CCNC(=O)c2ccc(Cl)cc2)cc1)C(=O)O` [bezafibrate, 2-(4-{2-[(4-Chlorobenzoyl)amino]ethyl}phenoxy)-2-methylpropanoic acid], in the data set on CPT2, the “enhancement of deficient enzyme (CPT2)” value was “enhancement”. The FAO entry in the data set with CPT2-deficient myoblasts was “restore”.
